Molecular target: T1, human ENT1 (Homo sapiens, UniProt Q99808)
T1 construct: JAR cells expressing ENT1 were purchased from ATCC; host or cells: JAR cells
T1 sequence (Q99808 1-456): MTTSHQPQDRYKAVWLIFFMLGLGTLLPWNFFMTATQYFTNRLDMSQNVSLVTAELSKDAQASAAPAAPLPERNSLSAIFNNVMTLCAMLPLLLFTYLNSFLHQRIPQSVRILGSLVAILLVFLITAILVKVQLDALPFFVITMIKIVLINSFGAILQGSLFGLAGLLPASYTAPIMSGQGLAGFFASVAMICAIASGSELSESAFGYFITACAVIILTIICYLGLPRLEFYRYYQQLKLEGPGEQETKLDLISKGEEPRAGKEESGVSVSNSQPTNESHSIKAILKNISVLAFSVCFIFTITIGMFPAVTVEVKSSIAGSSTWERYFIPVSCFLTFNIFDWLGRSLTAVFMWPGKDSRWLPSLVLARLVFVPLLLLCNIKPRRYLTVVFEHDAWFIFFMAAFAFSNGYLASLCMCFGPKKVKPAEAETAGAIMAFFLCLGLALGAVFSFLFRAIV
Experiment: ENT1 binding assay (competition with Sahenta-DY647 on JAR cells)
Conditions: competition with SAHENTA-DY647 binding; IC50 categorized; read-out: Binding Assay IC50
Procedure: Compounds of the present disclosure were assayed to show ability to bind to human ENT1. The assay is a competition between a compound of interest and Sahenta-DY647, an ENT1 inhibitor that emits fluorescence (Ex=630 nm, Em=670 nm). By measuring the fluorescence at the end of the assay, one can assess the binding potency of the compounds tested. The compounds of the present disclosure were tested and compared to known ENT inhibitors, dilazep and NBMPR:
JAR cells expressing ENT1 were purchased from ATCC® (HTB-144TM). Cells were cultured in RPMI 1640 medium (LONZA®, #BE12-702F/U1) supplemented with 10% FBS (GIBCO®, #10270-106), 10 mM Hepes (LONZA®, #BE17-737E), 1 mM Sodium Pyruvate (LONZA®, #BE13-115E), and 2% Penicillin/Streptomycin (LONZA®, #DE17-603E) at 37° C. and 5% CO2.
The assay was conducted with the following buffer on the day of the assay: HBSS (LONZA®, #LO-527F) supplemented with 10 mM Hepes (LONZA®, #BE17-737E) and 0.1% BSA (Miltenyi®, #130-091-376).
JAR cells were resuspended in the described buffer. The compounds of interest and Sahenta-DY647 were diluted 200× with the described buffer.
A total of 50,000 cells were pre-incubated for 30 min at 4° C. with the compounds of the present disclosure before adding the corresponding amount of Sahenta-DY647 (100 nM) to the minimal concentration at Bmax and incubating for an additional 30 min at 4° C. The total volume of the reaction was 100 μL (50 μL of cells, 25 μL of the compounds of the present disclosure, and 25 μL of Sahenta-DY647) in a U-bottom 96 well plate (Greiner®, #650-180). The plates were washed 2× by centrifugation (4 min, 400 rcf at 4° C.) in the same buffer. Cells were re-suspended in 70 μL of the buffer and 50 μL was transferred to a Black 384 Optiplate (PerkinElmer®, #6007279). Fluorescence (Ex=630 nm, Em=670 nm) was acquired on a Spectramax i3x (Molecular Devices®).
Dose-response data from the compounds were analyzed with Graphpad Prism 9.1.1@software, using nonlinear regression applied to a sigmoidal dose-response model and the following equation:
Y=Bottom+(Top-Bottom)/(1+10^((LogIC50−X)*HillSlope)), with a shared bottom and top between the test reagent and dipyridamole.
Data from multiple experiments were compiled by taking the average pIC50 value for the reagent in question±the standard deviation (s.d.) and expressing it as an average IC50 value in nM.
The inhibitory effect of the test compound was expressed as a percentage of the inhibition of SAHENTA-DY647 binding.

IC50 [nM]	SMILES
1 to 20	C[C@H]1O[C@@H](n2c(NC3CCCC3)nc3c(OCc4ccc(Cl)cc4)ncnc32)[C@H](O)[C@@H]1O [Compound 91]
1 to 20	C[C@H]1O[C@@H](n2c(NC3CCCC3)nc3c(OCc4ccc(C(F)(F)F)cc4)ncnc32)[C@H](O)[C@@H]1O [Compound 92]
20 to 500	C[C@H]1O[C@@H](n2c(NC3CCCC3)nc3c(OCc4ccc(C(F)(F)F)nc4)ncnc32)[C@H](O)[C@@H]1O [Compound 93]
1 to 20	C[C@H]1O[C@@H](n2c(NC3CCCC3)nc3c(OCc4ccc(C(F)F)cc4)ncnc32)[C@H](O)[C@@H]1O [Compound 94]
1 to 20	C[C@H]1O[C@@H](n2c(NC3CCCC3)nc3c(OCc4ccc(C(F)F)nc4)ncnc32)[C@H](O)[C@@H]1O [Compound 95]
1 to 20	CC(CCO)Nc1nc2c(OCc3ccc(C(F)(F)F)cc3)ncnc2n1[C@@H]1O[C@H](C)[C@@H](O)[C@H]1O (stereo partly drawn) [Compound 96]
1 to 20	CC(CCO)Nc1nc2c(OCc3ccc(Cl)cc3)ncnc2n1[C@@H]1O[C@H](C)[C@@H](O)[C@H]1O (stereo partly drawn) [Compound 97]
1 to 20	CC(CCO)Nc1nc2c(OCc3ccc(F)cc3)ncnc2n1[C@@H]1O[C@H](C)[C@@H](O)[C@H]1O (stereo partly drawn) [Compound 98]
1 to 20	CC(CCO)Nc1nc2c(OCc3ccc(OC(F)(F)F)cc3)ncnc2n1[C@@H]1O[C@H](C)[C@@H](O)[C@H]1O (stereo partly drawn) [Compound 99]
20 to 500	C[C@H]1O[C@@H](n2c(NC3CCC(O)C3)nc3c(OCc4ccc(Cl)cc4)ncnc32)[C@H](O)[C@@H]1O (stereo partly drawn) [Compound 101]
1 to 20	C[C@H]1O[C@@H](n2c(NC3CCC(O)C3)nc3c(OCc4ccc(F)cc4)ncnc32)[C@H](O)[C@@H]1O (stereo partly drawn) [Compound 102]
1 to 20	C[C@H]1O[C@@H](n2c(NCC3CC(F)(F)C3)nc3c(OCc4ccc(C#N)cc4)ncnc32)[C@H](O)[C@@H]1O [Compound 104]
1 to 20	C[C@H]1O[C@@H](n2c(NCC3CCC(F)(F)C3)nc3c(OCc4ccc(C#N)cc4)ncnc32)[C@H](O)[C@@H]1O (stereo partly drawn) [Compound 105]
1 to 20	C[C@H]1O[C@@H](n2c(NCC3CCC(F)(F)CC3)nc3c(OCc4ccc(C#N)cc4)ncnc32)[C@H](O)[C@@H]1O [Compound 106]
20 to 500	C[C@H]1O[C@@H](n2c(NCC3COC3)nc3c(OCc4ccc(C#N)cc4)ncnc32)[C@H](O)[C@@H]1O [Compound 107]
1 to 20	C[C@H]1O[C@@H](n2c(NCC3CCOCC3)nc3c(OCc4ccc(C#N)cc4)ncnc32)[C@H](O)[C@@H]1O [Compound 109]
20 to 500	C[C@H]1O[C@@H](n2c(NCC3CCOC3)nc3c(OCc4ccc(Cl)cc4)ncnc32)[C@H](O)[C@@H]1O (stereo partly drawn) [Compound 110]
20 to 500	C[C@H]1O[C@@H](n2c(NCC3CCOCC3)nc3c(OCc4ccc(Cl)cc4)ncnc32)[C@H](O)[C@@H]1O [Compound 111]
20 to 500	C[C@H]1O[C@@H](n2c(N[C@H]3C[C@@](C)(O)C3)nc3c(OCc4ccc(C#N)cc4)ncnc32)[C@H](O)[C@@H]1O [Compound 119]
< 1	C[C@H]1O[C@@H](n2c(N[C@H]3C[C@](C)(O)C3)nc3c(OCc4ccc(C#N)cc4)ncnc32)[C@H](O)[C@@H]1O [Compound 120]
1 to 20	C[C@H]1O[C@@H](n2c(N[C@H]3CC[C@@](C)(O)CC3)nc3c(OCc4ccc(OC(F)F)cc4)ncnc32)[C@H](O)[C@@H]1O [Compound 122]
1 to 20	C[C@H]1O[C@@H](n2c(N[C@H]3C[C@@](C)(O)C3)nc3c(OCc4ccc(OC(F)F)cc4)ncnc32)[C@H](O)[C@@H]1O [Compound 123]
< 1	C[C@H]1O[C@@H](n2c(N[C@H]3C[C@](C)(O)C3)nc3c(OCc4ccc(OC(F)F)cc4)ncnc32)[C@H](O)[C@@H]1O [Compound 124]

IC50 [nM]	SMILES
1 to 20	C[C@H]1O[C@@H](n2c(N[C@H]3CC[C@](C)(O)CC3)nc3c(OCc4ccc(C(F)(F)F)cc4)ncnc32)[C@H](O)[C@@H]1O [Compound 125]
1 to 20	C[C@H]1O[C@@H](n2c(N[C@H]3CC[C@@](C)(O)CC3)nc3c(OCc4ccc(C(F)(F)F)cc4)ncnc32)[C@H](O)[C@@H]1O [Compound 126]
20 to 500	C[C@H]1O[C@@H](n2c(N[C@H]3CC[C@](C)(O)CC3)nc3c(OCc4ccc(Cl)cc4)ncnc32)[C@H](O)[C@@H]1O [Compound 127]
1 to 20	C[C@H]1O[C@@H](n2c(N[C@H]3CC[C@@](C)(O)CC3)nc3c(OCc4ccc(Cl)cc4)ncnc32)[C@H](O)[C@@H]1O [Compound 128]
1 to 20	C[C@H]1O[C@@H](n2c(N[C@H]3CC[C@](C)(O)CC3)nc3c(OCc4ccc(F)cc4)ncnc32)[C@H](O)[C@@H]1O [Compound 129]
1 to 20	C[C@H]1O[C@@H](n2c(N[C@H]3CC[C@@](C)(O)CC3)nc3c(OCc4ccc(F)cc4)ncnc32)[C@H](O)[C@@H]1O [Compound 130]
1 to 20	C[C@H]1O[C@@H](n2c(N[C@H]3CC[C@@](C)(O)CC3)nc3c(OCc4ccc(C#N)cc4)ncnc32)[C@H](O)[C@@H]1O [Compound 131]
1 to 20	C[C@H]1O[C@@H](n2c(N[C@H]3CC[C@](C)(O)CC3)nc3c(OCc4ccc(C#N)cc4)ncnc32)[C@H](O)[C@@H]1O [Compound 132]
20 to 500	O=[N+]([O-])c1ccc(COc2ncnc3c2nc(NC2CCCC2)n3[C@@H]2O[C@H](COCCO)[C@@H](O)[C@H]2O)cc1 [Compound 135]
< 1	C[C@H]1O[C@@H](n2c(NC3CCS(=O)(=O)CC3)nc3c(N4CCc5ccc([N+](=O)[O-])cc5C4)ncnc32)[C@H](O)[C@@H]1O [Compound 136]
< 1	C[C@H]1O[C@@H](n2c(NCc3cnn(C)c3)nc3c(N4CCc5ccc([N+](=O)[O-])cc5C4)ncnc32)[C@H](O)[C@@H]1O [Compound 138]
< 1	C[C@H]1O[C@@H](n2c(N[C@H]3CC[C@@](C)(O)CC3)nc3c(N4CCc5ccc([N+](=O)[O-])cc5C4)ncnc32)[C@H](O)[C@@H]1O [Compound 139]
< 1	C[C@H]1O[C@@H](n2c(NC3CCC(O)CC3)nc3c(N4CCc5ccc([N+](=O)[O-])cc5C4)ncnc32)[C@H](O)[C@@H]1O (stereo partly drawn) [Compound 140]
< 1	C[C@H]1O[C@@H](n2c(Nc3cnn(C)c3)nc3c(N4CCc5ccc([N+](=O)[O-])cc5C4)ncnc32)[C@H](O)[C@@H]1O [Compound 142]
< 1	C[C@H]1O[C@@H](n2c(NCCCS(C)(=O)=O)nc3c(N4CCc5ccc([N+](=O)[O-])cc5C4)ncnc32)[C@H](O)[C@@H]1O [Compound 143]
1 to 20	C[C@H]1O[C@@H](n2c(N[C@H]3CC[C@](C)(O)CC3)nc3c(N4CCc5ccc([N+](=O)[O-])cc5C4)ncnc32)[C@H](O)[C@@H]1O [Compound 144]
1 to 20	COCCCNc1nc2c(N3CCc4ccc([N+](=O)[O-])cc4C3)ncnc2n1[C@@H]1O[C@H](C)[C@@H](O)[C@H]1O [Compound 146]
1 to 20	C[C@H]1O[C@@H](n2c(NC3CCOCC3)nc3c(N4CCc5ccc([N+](=O)[O-])cc5C4)ncnc32)[C@H](O)[C@@H]1O [Compound 148]
1 to 20	CC(C)Nc1nc2c(N3CCc4ccc([N+](=O)[O-])cc4C3)ncnc2n1[C@@H]1O[C@H](C)[C@@H](O)[C@H]1O [Compound 149]
1 to 20	C[C@H]1O[C@@H](n2c(NCCCO)nc3c(N4CCc5ccc(C#N)cc5C4)ncnc32)[C@H](O)[C@@H]1O [Compound 155]
1 to 20	COCCCNc1nc2c(N3CCc4ccc(C#N)cc4C3)ncnc2n1[C@@H]1O[C@H](C)[C@@H](O)[C@H]1O [Compound 160]
20 to 500	C[C@H]1O[C@@H](n2cc(C(F)(F)F)c3c(SCc4ccc([N+](=O)[O-])cc4)ncnc32)[C@H](O)[C@@H]1O [Compound 163]

— patent US20260184712A1, “Heterocyclic Compounds as ENT Inhibitors and Compounds for Use in the Treatment of Cancers” (iTeos Belgium SA, priority 2022, published 2026)
